Assay results from US12151017B2, “Compositions and methods for hair regrowth” (Nutraceutical Wellness, Inc., priority 2015, dated 2024).

Test system: hair loss, Stage III Vertex/Stage IV MPHL
Experiment: Example 1: single subject given the components cumulatively over 7 months
Assay type: in vivo, human
Details: taken before the implementations of the disclosure
Procedure: During month 4, the subject was additionally given a daily 250 mg dose of Ashwagandha extracted from Withania somnifera, containing at least 8% withanolide glycosides and 32% oligosaccharides from the roots and leaves (Sensoril®, Natreon, New Brunswick, NJ) for stress associated with their condition and work. […] During month 5, the subject was additionally given a daily dose of Certified Organic saw palmetto extract Standardized 85-95% fatty acids (Valensa Eustis, FL) in the amount of 640 mg a day. […] During month 6, the subject added a 100 mg dose of tocotrienol/tocopherol complex comprising 78% tocotrienols and 22% tocopherols (Tocomax™ 20%, Carotech, Malaysia) a day. […] Lastly, in month 7, They were additionally given approximately 1000 mg of hydrolyzed marine collagen Types I and III (Youtheory, Tustin, CA) and 100 mg of hyaluronic acid (NOW Foods, Bloomingdale, IL).

SMILES | hair outcome of earlier treatments (subject's history)
O=C(O)CCCC[C@@H]1SC[C@@H]2NC(=O)N[C@@H]21 [biotin] | did not result in a noticeable cessation of hair loss or new hair growth
CC(C)(C)NC(=O)[C@H]1CC[C@H]2[C@@H]3CC[C@H]4NC(=O)C=C[C@]4(C)[C@H]3CC[C@]12C [finasteride] | improvement was minimal
